{"source": "patent US10464920B2", "about": "“Vicinal primary diamines associated with metal and/or free radical chelation motifs, and active against carbonyl and oxidative stress, and use thereof” (UNIVERSITE AMIENS PICARDIE JULES VERNE, priority 2015, dated 2019)", "experiment": "Formation of adducts with MDA, kinetic study by HPLC", "type": "physicochemical", "details": "compound 10 mM, MDA 20 mM, 37° C., after 24 h of reaction; no HPLC separation, trend", "method": "The compounds to be tested are incubated at 37° C. in the presence of MGO or of MDA. A kinetic study aiming to report on the formation of adducts with the MGO or MDA is then carried out via HPLC analysis.\nThe compounds to be tested (30 μmol) are dissolved in PBS (1.5 mL). An aqueous solution (qsp 1.25 mL) of MGO at 40% in water (250 μmol) is then prepared and in parallel, MDA bis-(diOEt)-acetal (250 μmol) is set to react with a solution of HCl 1N (2 eq) in water (qsp 1.25 mL) for 1 h at room temperature. An aqueous solution of NaOH 0.05N is also required to neutralise the reaction medium (5 mL).\nThe solution of the compound to be tested (625 μL—final concentration in the medium=10 mM) is then set to react with the solution of MGO or of MDA prepared extemporaneously (125 μL—final concentration in the medium=20 mM) in the presence of NaOH 0.05 N (0.5 mL). […]\nA sampling of each mixture (100 μL) is taken at regular intervals of time (0.25; 0.5; 1; 5 and 24 h) and stored at −20° C. in order to stop the reaction. […] The proportion of adducts formed with the MGO or MDA (generally, tR=4.1 to 6.8 min) is then measured in relation to the quantity of remaining free scavenger (generally, tR=0.8 to 4.6 min) after measurement of the area under the curve of the corresponding peaks on the UV spectrum (measurements taken for a representative sample)."}
{"smiles": "COc1cc(/C=C/C(=O)N2CCN(C(=O)CCC(N)CN)CC2)ccc1O", "note": "(stereo not shown) [Compound 29a, (E)-4,5-diamino-1-(4-(3-(4-hydroxy-3-methoxyphenyl)acryloyl)piperazin-1-yl)pentan-1-one]", "values": [{"measurement": "adducts with the MDA with regards to the free scavenger", "value": "majority presence of AdD"}]}
